Source: the supplement of paper PMC10307832

Legend:
Assay in all cases: relative viability (nuclei count vs DMSO), 5 days (fraction); higher = more cells survive
[1] = compound: CC1=CC=C(C=C1)C(=O)CN2C3=C(CCCC3)SC2=N [Pifithrin_alpha] + CS(=O)(=O)N1CCN(Cc2cc3nc(-c4cccc5[nH]ncc45)nc(N4CCOCC4)c3s2)CC1 [Pictilisib] (partner 1 µM)
Procedure, shortened: (§1)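 Relative viability is defined as nuclei in treated wells over nuclei in vehicle wells. Duplicate plates were run and medians reported. Lung cancer cell lines in 1536-well plates were dosed by pin tool one day after seeding, with one drug or with a fixed anchor-drug dose plus five library-drug doses (not always all listed) in √10 steps, and nuclei were counted after 5 days.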

Axitinib + Pictilisib = compound: CNC(=O)c1ccccc1Sc1ccc2c(/C=C/c3ccccn3)n[nH]c2c1 [Axitinib] + CS(=O)(=O)N1CCN(Cc2cc3nc(-c4cccc5[nH]ncc45)nc(N4CCOCC4)c3s2)CC1 [Pictilisib] (partner 1 µM)
Procedure, shortened: as §1

Bemcentinib + Pictilisib = compound: Nc1nc(Nc2ccc3c(c2)CC[C@@H](N2CCCC2)CC3)nn1-c1cc2c(nn1)-c1ccccc1CCC2 [Bemcentinib] + CS(=O)(=O)N1CCN(Cc2cc3nc(-c4cccc5[nH]ncc45)nc(N4CCOCC4)c3s2)CC1 [Pictilisib] (partner 1 µM)
Procedure, shortened: as §1

[2] = compound: CC1=CC=C(C=C1)C(=O)CN2C3=C(CCCC3)SC2=N [Pifithrin_alpha] + Nc1ncn([C@H]2C[C@H](O)[C@@H](CO)O2)c(=O)n1 [Decitabine] (partner 2 µM)
Procedure, shortened: as §1

Cell Line | relative viability ([1]; first compound 1 µM) | relative viability ([1]; first compound 3.162 µM) | relative viability ([1]; first compound 10 µM) | relative viability ([1]; first compound 100 µM) | relative viability (Axitinib + Pictilisib; first compound 0.005 µM) | relative viability (Axitinib + Pictilisib; first compound 0.01581 µM) | relative viability (Axitinib + Pictilisib; first compound 0.05 µM) | relative viability (Axitinib + Pictilisib; first compound 0.1581 µM) | relative viability (Axitinib + Pictilisib; first compound 0.5 µM) | relative viability (Bemcentinib + Pictilisib; first compound 0.04 µM) | relative viability (Bemcentinib + Pictilisib; first compound 0.1265 µM) | relative viability (Bemcentinib + Pictilisib; first compound 0.4 µM) | relative viability (Bemcentinib + Pictilisib; first compound 1.265 µM) | relative viability (Bemcentinib + Pictilisib; first compound 4 µM) | relative viability ([2]; first compound 1 µM) | relative viability ([2]; first compound 3.162 µM) | relative viability ([2]; first compound 10 µM) | relative viability ([2]; first compound 31.62 µM) | relative viability ([2]; first compound 100 µM) | relative viability ([1]; first compound 31.62 µM)
NCI-H460 | 0.317 | 0.353 | 0.31 | 0.371 | 0.403 | 0.443 | 0.333 | 0.323 | 0.327 | 0.252 | 0.267 | 0.412 | 0.26 | 0.374 | 0.531 | 0.496 | 0.392 | 0.218 | 0.215 | –
NCI-H1395 | – | 0.553 | 0.562 | 0.484 | 0.612 | 0.559 | 0.634 | 0.528 | 0.684 | 0.787 | 0.619 | 0.83 | 0.612 | 0.674 | – | 0.649 | 0.709 | – | 0.735 | 0.465
NCI-H727 | 0.347 | 0.466 | 0.369 | 0.227 | 0.486 | 0.426 | 0.485 | 0.397 | 0.492 | 0.221 | 0.358 | 0.413 | 0.41 | 0.456 | 0.328 | 0.782 | 0.835 | 0.731 | 0.749 | 0.316
NCI-H838 | 0.343 | 0.357 | 0.399 | 0.314 | 0.461 | 0.37 | 0.551 | 0.594 | 0.607 | 0.441 | 0.442 | 0.639 | 0.485 | 0.459 | 0.427 | 0.473 | 0.441 | 0.387 | 0.389 | 0.293
NCI-H1755 | 0.296 | 0.451 | 0.395 | 0.39 | 0.482 | 0.418 | 0.55 | 0.4 | 0.454 | 0.331 | 0.459 | 0.496 | 0.485 | 0.443 | 0.74 | 0.632 | 0.731 | 0.593 | 0.729 | 0.307
EMC-BAC-2 | 0.511 | 0.566 | 0.55 | 0.545 | 0.569 | 0.533 | 0.534 | 0.555 | 0.529 | 0.544 | 0.561 | 0.529 | 0.548 | 0.569 | – | 0.95 | – | 0.84 | 0.972 | 0.456
EKVX | 0.328 | 0.283 | 0.281 | 0.214 | 0.441 | 0.429 | 0.481 | 0.48 | 0.399 | 0.404 | 0.474 | 0.503 | 0.436 | 0.451 | 0.343 | 0.553 | 0.319 | 0.32 | 0.368 | 0.235
NCI-H647 | – | 0.413 | 0.37 | 0.341 | 0.439 | 0.416 | 0.425 | 0.478 | 0.399 | 0.385 | 0.602 | 0.427 | 0.455 | 0.363 | 0.442 | 0.403 | 0.376 | 0.339 | 0.406 | 0.226
NCI-H358 | 0.276 | 0.346 | 0.368 | 0.317 | 0.369 | 0.309 | 0.33 | 0.336 | 0.369 | 0.331 | 0.347 | 0.336 | 0.372 | 0.359 | 0.206 | 0.205 | 0.19 | 0.217 | 0.16 | 0.333
LU99A | 0.35 | 0.311 | 0.325 | 0.305 | 0.355 | 0.349 | 0.336 | 0.363 | 0.306 | 0.362 | 0.356 | 0.329 | 0.346 | 0.357 | 0.834 | 0.919 | 1.04 | – | 0.863 | –
NCI-H1734 | 0.494 | 0.491 | 0.481 | 0.434 | 0.462 | 0.432 | 0.493 | 0.439 | 0.436 | 0.461 | 0.487 | 0.486 | 0.48 | 0.45 | 0.497 | 0.463 | 0.502 | 0.441 | 0.556 | 0.381
HARA | 0.335 | 0.275 | 0.4 | 0.251 | 0.324 | 0.401 | 0.545 | 0.364 | 0.281 | 0.407 | 0.423 | 0.338 | 0.392 | 0.371 | 0.474 | 0.622 | 0.628 | 0.514 | 0.472 | 0.234
HCC-827 | 1.05 | 0.982 | 0.907 | 1.02 | 0.911 | 1.04 | 0.947 | 1.08 | 0.889 | 1.11 | 0.943 | 1.05 | 0.877 | 1.07 | 0.136 | 0.357 | 0.31 | 0.334 | 0.345 | 0.791
EPLC-272H | – | 0.319 | 0.35 | 0.248 | 0.317 | 0.289 | 0.391 | 0.272 | 0.313 | – | 0.356 | 0.343 | 0.294 | 0.316 | – | 0.268 | 0.39 | 0.375 | 0.358 | 0.255
SW 1573 | 0.596 | 0.595 | 0.59 | 0.491 | 0.507 | 0.462 | 0.576 | 0.444 | 0.463 | 0.409 | 0.532 | 0.618 | 0.488 | 0.494 | 0.516 | 0.449 | 0.509 | – | 0.587 | 0.438
LXF-289 | 0.818 | 0.694 | 0.726 | 0.687 | 0.823 | 0.732 | 0.833 | 0.765 | 0.742 | 0.871 | 0.854 | 0.814 | 0.79 | 0.844 | 0.359 | 0.335 | 0.388 | 0.366 | 0.369 | 0.498
